Data on 23 compounds can be found in patent US9518060B2, “Substituted pyrrolo[3,4-c]pyrazoles as PKC kinase inhibitors” (PFIZER INC., priority 2007, dated 2016).

SMILES strings stand for the structures. pKi: −log10 of the molar value. Structures can show the parent of a compound that is named as a salt.

The test deals with Protein Kinase C beta 2 (PKCβII) (Homo sapiens (Human), UniProt P05771). In words: PKCβII coupled spectrophotometric kinase assay (PK/LDH, NADH absorbance at 340 nm). It is filed as biochemical. Particulars: apparent Ki, ATP competitive inhibition model (Morrison equation); 0.1 mM ATP, 5 nM PKC, 30° C.; read-out: Ki app. The method, then:
Protein Kinase C beta 2 (PKCβII) catalyzes the production of ADP from ATP that accompanies the phosphoryl transfer to the PKC Pseudosubstrate peptide (A→S, RFARKGSLRQKNV). This transfer is coupled to the oxidation of β-NADH through the activities of Pyruvate Kinase (PK) and Lactate Dehydrogenase (LDH). β-NADH conversion to NAD+ is monitored by the decrease in absorbance at 340 nm (e=6.22 cm^−1 mM^−1) using a Molecular Devices SPECTRA max PLUS spectrophotometer.
A typical assay was carried out on a 96-well, clear microtiter plate in a Molecular Devices spectrophotometer for 20 minutes at 30° C. in 0.1 mL of assay buffer containing 50 mM HEPES, pH 7.4, 5 nM PKC, 23 units of pyruvate kinase, 33 units of lactate dehydrogenase, 0.15 mM peptide, 0.1 mM ATP, 1 mM DTT, 4 mM PEP, 8 mM MgCl2, 0.3 mM NADH, 60 mM CaCl2, 10 mg/mL PS, 50 ng/mL PMA, 7.5% DMSO and from about 10,000 nM to 0.169 nM compound inhibitor. Stock solutions of 3-sn-phosphatidyl-L-serine (PS) and phorbol-12-myristate-13-acetate (PMA) were sonicated for 30 seconds just prior to addition to assay buffer and assays were initiated by the addition of 100 μM ATP.
Steady-state kinetic parameters for the bi-bi kinase reaction were determined at saturating phospho-acceptor peptide substrate concentration (0.15 mM) by fitting initial velocity data to the Michaelis-Menten equation, v=Vmax[S]/(KM+[S]) where v is the measured initial velocity, Vmax is the maximal enzyme velocity, [S] is the ATP substrate concentration, and KM is the Michealis constant for ATP. Enzyme turnover values (kcat) were calculated according to […], where [E] is the total enzyme concentration. Enzyme inhibition constants (apparent Ki values) were determined by fitting initial velocities at variable inhibitor concentrations to a model for ATP competitive inhibition based on the Morrison equation). Morrison, J. F., Biochim. Biophys Acta 185: 269-286 (1969).

Chain of Protein Kinase C beta 2 (PKCβII) (P05771 other isoform, or with tags, fused parts or gaps): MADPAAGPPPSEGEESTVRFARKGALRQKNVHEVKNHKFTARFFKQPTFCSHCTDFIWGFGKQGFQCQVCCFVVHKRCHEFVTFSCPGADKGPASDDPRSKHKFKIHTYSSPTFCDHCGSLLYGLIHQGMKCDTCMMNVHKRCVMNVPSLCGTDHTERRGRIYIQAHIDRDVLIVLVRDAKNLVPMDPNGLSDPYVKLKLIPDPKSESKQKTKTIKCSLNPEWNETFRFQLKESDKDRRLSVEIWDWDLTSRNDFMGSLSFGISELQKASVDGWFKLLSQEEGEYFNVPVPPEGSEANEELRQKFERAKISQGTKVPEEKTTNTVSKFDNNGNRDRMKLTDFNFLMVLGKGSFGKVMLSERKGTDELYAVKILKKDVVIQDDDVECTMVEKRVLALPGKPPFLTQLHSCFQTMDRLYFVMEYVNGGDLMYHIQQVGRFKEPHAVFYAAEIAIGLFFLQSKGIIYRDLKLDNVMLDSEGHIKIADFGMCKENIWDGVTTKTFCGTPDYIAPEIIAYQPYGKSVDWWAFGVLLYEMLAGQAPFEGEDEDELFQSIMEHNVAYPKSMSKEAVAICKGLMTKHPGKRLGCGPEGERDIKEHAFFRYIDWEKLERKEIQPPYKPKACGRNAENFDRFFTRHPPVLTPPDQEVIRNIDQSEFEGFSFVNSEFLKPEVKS

Turning to `CCNc1ncc(F)c(Nc2n[nH]c3c2CN(C(=O)N2C[C@@H](C)N(CC4CCOCC4)C[C@@H]2C)C3(C)C)n1` [Example A11, N^4-(5-{[(2S,5R)-2,5-dimethyl-4-(tetrahydro-2H-pyran-4-ylmethyl)piperazin-1-yl]carbonyl}-6,6-dimethyl-1,4,5,6-tetrahydropyrrolo[3,4-c]pyrazol-3-yl)-N^2-ethyl-5-fluoropyrimidine-2,4-diamine], the negative-log Ki (pKi) (as a rule, the negative decadic logarithm of the Ki, by convention in mol/L) is over 8.00. As to `CCN1C[C@H](C)N(C(=O)N2Cc3c(Nc4nc(OC)ncc4F)n[nH]c3C2(C)C)C[C@H]1C` [Example AA1, 5-{[(2S,5R)-4-ethyl-2,5-dimethylpiperazin-1-yl]carbonyl}-N-(5-fluoro-2-methoxypyrimidin-4-yl)-6,6-dimethyl-1,4,5,6-tetrahydropyrrolo[3,4-c]pyrazol-3-amine], the pKi is 7.64. Next, `CCOc1ncc(F)c(Nc2n[nH]c3c2CN(C(=O)N2CCN4CCC[C@@H]4C2)C3(C)C)n1` [Example K14, [3-(2-Ethoxy-5-fluoro-pyrimidin-4yl-amino)-6,6-dimethyl-4,6-dihydro-1H-pyrrolo[3,4-c]pyrazol-5-yl]-(R)-hexahydro-pyrrolo[1,2-a]pyrazin-2-yl-methanone]: 7.14. In the case of `Cc1ncc(F)c(Nc2n[nH]c3c2CN(C(=O)N2C[C@@H](C)N(CC4(O)CCOCC4)C[C@@H]2C)C3(C)C)n1` [Example H8, 4-[((2R,5S)-4-{[3-[(5-fluoro-2-methylpyrimidin-4-yl)amino]-6,6-dimethyl-4,6-dihydropyrrolo[3,4-c]pyrazol-5(1H)-yl]carbonyl}-2,5-dimethylpiperazin-1-yl)methyl]tetrahydro-2H-pyran-4-ol], the pKi is 6.80.

On to `COCc1ncc(F)c(Nc2n[nH]c3c2CN(C(=O)N2CC(C)(C)N(C)C[C@@H]2C)C3(C)C)n1` [Example J9, N-[5-fluoro-2-(methoxymethyl)pyrimidin-4-yl]-6,6-dimethyl-5-{[(2S)-2,4,5,5-tetramethylpiperazin-1-yl]carbonyl}-1,4,5,6-tetrahydropyrrolo[3,4-c]pyrazol-3-amine], for which the pKi was 8.68. In the case of `CCc1ncc(F)c(Nc2n[nH]c3c2CN(C(=O)N2C[C@@H](C)N(C)C[C@@H]2C)C3(C)C)n1` [Example E1, N-(2-ethyl-5-fluoropyrimidin-4-yl)-6,6-dimethyl-5-{[(2S,5R)-2,4,5-trimethylpiperazin-1-yl]carbonyl}-1,4,5,6-tetrahydropyrrolo[3,4-c]pyrazol-3-amine acetate salt], the pKi was 7.98. With `CCOc1nccc(Nc2n[nH]c3c2CN(C(=O)N2C[C@@H](C)N(C)C[C@@H]2C)C3(C)C)n1` [Example E3, N-(2-ethoxypyrimidin-4-yl)-6,6-dimethyl-5-{[(2S,5R)-2,4,5-trimethylpiperazin-1-yl]carbonyl}-1,4,5,6-tetrahydropyrrolo[3,4-c]pyrazol-3-amine], the pKi was 7.88. Next, `Cc1ncc(F)c(Nc2n[nH]c3c2CN(C(=O)N2C[C@@H](C)N(C)C[C@@H]2C)C3(C)C)n1` [Example H2, N-(5-fluoro-2-methylpyrimidin-4-yl)-6,6-dimethyl-5-{[(2S,5R)-2,4,5-trimethylpiperazin-1-yl]carbonyl}-1,4,5,6-tetrahydropyrrolo[3,4-c]pyrazol-3-amine]: 7.74. Next, `C[C@H]1CN(C)C(C)(C)CN1C(=O)N1Cc2c(Nc3nc(NC4CC4)ncc3F)n[nH]c2C1(C)C` [Example A5, N2-cyclopropyl-N4-(6,6-dimethyl-5-{[(2S)-2,4,5,5-tetramethylpiperazin-1-yl]carbonyl}-1,4,5,6-tetrahydropyrrolo[3,4-c]pyrazol-3-yl)-5-fluoropyrimidine-2,4-diamine]: 8.40.

Regarding `Cc1cccc(Nc2n[nH]c3c2CN(C(=O)N2C[C@@H](C)N(C)C[C@@H]2C)C3(C)C)n1` [Example J8, 6,6-dimethyl-N-(6-methylpyridin-2-yl)-5-{[(2S,5R)-2,4,5-trimethylpiperazin-1-yl]carbonyl}-1,4,5,6-tetrahydropyrrolo[3,4-c]pyrazol-3-amine], the negative logarithm of the Ki (pKi) is 7.49. As to `C[C@H]1CN(C)C(C)(C)CN1C(=O)N1Cc2c(Nc3nc(NCC4CC4)ncc3F)n[nH]c2C1(C)C` [Example A3, N^2-(cyclopropylmethyl)-N^4-(6,6-dimethyl-5-{[(2S)-2,4,5,5-tetramethylpiperazin-1-yl]carbonyl}-1,4,5,6-tetrahydropyrrolo[3,4-c]pyrazol-3-yl)-5-fluoropyrimidine-2,4-diamine], the pKi was 7.75. In the case of `Cc1ncc(F)c(Nc2n[nH]c3c2CN(C(=O)N2C[C@H](C)N(C)C[C@@H]2C)C3(C)C)n1` [AA4, 2(S),5(S)-{[dimethyl-4-methylpiperazin-1-yl]carbonyl}-N-(5-fluoro-2-methylpyrimidin-4-yl)-6,6-dimethyl-1,4,5,6-tetrahydropyrrolo[3,4-c]pyrazol-3-amine], the pKi is 6.83. For `CCNc1ncc(F)c(Nc2n[nH]c3c2CN(C(=O)N2C[C@@H](C)N(CCOC)C[C@@H]2C)C3(C)C)n1` [Example B4, N^2-ethyl-5-fluoro-N4-(5-{[(2S,5R)-4-(2-methoxyethyl)-2,5-dimethylpiperazin-1-yl]carbonyl}-6,6-dimethyl-1,4,5,6-tetrahydropyrrolo[3,4-c]pyrazol-3-yl)pyrimidine-2,4-diamine], the pKi is 7.87. On to `Cc1ccc(F)c(Nc2n[nH]c3c2CN(C(=O)N2CC(C)(C)N(C)C[C@@H]2C)C3(C)C)n1` [Example J6, N-(3-fluoro-6-methylpyridin-2-yl)-6,6-dimethyl-5-{[(2S)-2,4,5,5-tetramethylpiperazin-1-yl]carbonyl}-1,4,5,6-tetrahydropyrrolo[3,4-c]pyrazol-3-amine], for which the pKi was 8.93. Next, `CCOc1ncc(F)c(Nc2n[nH]c3c2CN(C(=O)N2C[C@@H](C)N(C)C[C@@H]2C)C3(C)C)n1` [Example K1, N-(2-ethoxy-5-fluoropyrimidin-4-yl)-6,6-dimethyl-5-{[(2S,5R)-2,4,5-trimethylpiperazin-1-yl]carbonyl}-1,4,5,6-tetrahydropyrrolo[3,4-c]pyrazol-3-amine]: 8.95; `COCc1ncc(F)c(Nc2n[nH]c3c2CN(C(=O)N2CC(CCO)N(C)C[C@@H]2C)C3(C)C)n1` (single isomer, unassigned) [Example N2]: over 8.00; `CCOc1ncc(F)c(Nc2n[nH]c3c2CN(C(=O)N2C[C@@H](C)N(CCOC)C[C@@H]2C)C3(C)C)n1` [Example K4, N-(2-ethoxy-5-fluoropyrimidin-4-yl)-5-{[(2S,5R)-4-(2-methoxyethyl)-2,5-dimethylpiperazin-1-yl]carbonyl}-6,6-dimethyl-1,4,5,6-tetrahydropyrrolo[3,4-c]pyrazol-3-amine]: 8.48. Turning to `CCOc1ncc(F)c(Nc2n[nH]c3c2CN(C(=O)N2C[C@@H](C)N(C4CCOCC4)C[C@@H]2C)C3(C)C)n1` [Example K21, 5-{[(2S,5R)-2,5-dimethyl-4-(tetrahydro-2H-pyran-4-yl)piperazin-1-yl]carbonyl}-N-(2-ethoxy-5-fluoropyrimidin-4-yl)-6,6-dimethyl-1,4,5,6-tetrahydropyrrolo[3,4-c]pyrazol-3-amine], the pKi is over 8.00.

In the case of `C[C@@H]1CN(C(=O)N2Cc3c(Nc4nccc(C(F)(F)F)n4)n[nH]c3C2(C)C)[C@@H](C)CN1C1CCOCC1` [Example J13], the pKi was over 8.00. Consider `Cc1ncc(F)c(Nc2n[nH]c3c2CN(C(=O)N2CC(CCO)N(C)C[C@@H]2C)C3(C)C)n1` (single isomer, unassigned) [Example H10], for which the pKi was 6.74.

`COCCCOc1ncc(F)c(Nc2n[nH]c3c2CN(C(=O)N2CC(C)(C)N(C)C[C@@H]2C)C3(C)C)n1` [Example K9, N-[5-fluoro-2-(3-methoxypropoxy)pyrimidin-4-yl]-6,6-dimethyl-5-{[(2S)-2,4,5,5-tetramethylpiperazin-1-yl]carbonyl}-1,4,5,6-tetrahydropyrrolo[3,4-c]pyrazol-3-amine]: the pKi was 7.89.

Regarding `Cc1ncc(F)c(Nc2n[nH]c3c2CN(C(=O)N2C[C@@H](C)N(CCCO)C[C@@H]2C)C3(C)C)n1` (stereo in doubt) [AA5, [3-(5-fluoro-2-methyl-pyrimidin-4-ylamino)-6,6-dimethyl-4,6-dihydro-1H-pyrrolo[3,4-c]pyrazol-5-yl]-[4-(3-hydroxy-propyl)-2,5-dimethyl-piperazin-1-yl]-methanone], the negative logarithm of the Ki (pKi) was 7.54. As for `Cc1ncc(F)c(Nc2n[nH]c3c2CN(C(=O)C2(F)CCN(C)CC2)C3(C)C)n1` [Example F1, 5-[(4-fluoro-1-methylpiperidin-4-yl)carbonyl]-N-(5-fluoro-2-methylpyrimidin-4-yl)-6,6-dimethyl-1,4,5,6-tetrahydropyrrolo[3,4-c]pyrazol-3-amine], the figure is 7.40.
